Assay results from US10980798B2, “Pharmaceutical compositions of hydrophobic camptothecin derivatives” (Taiwan Liposome Company, Ltd., priority 2011, dated 2021).
Blank lines part the entries; values can stand above or below the molecule they belong to.

What was measured:
[1] = Aqueous solubility with mPEG2000-DSPE formulation; format: physicochemical; settings: water with mPEG2000-DSPE formulation, aqueous with cosolvent or surfactant or cyclodextrin
Method: In addition, the aqueous solubility of […] increased to 10 mg/mL with mPEG2000-DSPE formulation.

[2] = stated as known; cited from earlier work
RG-2 = test: SRB cytotoxicity assay, RG-2 glioma cell line; format: cell-based; settings: Homo sapiens, RG2
From the text: (§1) Human hepatoma cell lines Hep3B, HepG2, HepG2/2.2.15, Huh-7 and Sk-Hep-1, human glioblastoma cell line RG-2, and human prostate cancer cell line DU145 were maintained in DMEM (HyClone Laboratories, Logan, Utah, USA). Human prostate cancer cell line LNCap was maintained in RPMI-1640 culture medium (Sigma-Aldrich, St. Louis, Mo., USA). […] Human prostate cancer cell line PC-3 was maintained in the Ham's F-12K medium (Invitrogen, Carlsbad, Calif., USA) with the same medium supplements described in the culture medium except that the fetal bovine serum concentration was reduced to 7% by volume. Cancer cells were maintained at 37° C. in a humidified incubator (Nuaire, USA) containing 5% CO2.
(§2) The SRB assay was used for measuring cancer cell viability. The cancer cells in the plate wells were rinsed with 1× PBS and treated with 1× trypsin-EDTA (Invitrogen, Carlsbad, Calif.). The culture medium was added to dilute the trypsin-EDTA. The detached cancer cells were harvested by centrifugation and suspended in the 1 ml culture medium. Ten μl of the cell suspension was dispensed into counting chambers and the cell density was determined microscopically. The cells in 198 μl suspensions were seeded onto a 96-well cell plate (Nunc, Rochester, N.Y.) at the appropriate cell density per well and incubated in the cell culture incubator overnight.
(§3) We evaluated the ant-cancer activity of the following CPT derivatives pharmaceutical compositions: • 1. TLC388 HCl, a non-water soluble CPT derivative (obtained from ScinoPharm Taiwan Ltd., Taiwan); • 2. […]
(§4) At the end of the incubation period, cells were fixed by adding 50 μl of cold 50% TCA (w/v) (Sigma, St Louis, Mo., USA) to a final concentration of 10% TCA and further incubated at 4° C. for 60 minutes. […] Bound stain in each well was solubilized with 100 μl of 10 mM trizma base (Bioshop, Burlington, ON, Canada), and the absorbance was measured using an automated plate reader (Anthos 2001, Anthos Labtec Instrument) at 540 nm.
(§5) The graph and data were analyzed by SigmaPlot 10.0 software and Microsoft Excel 2002.

Sk-Hep-1 = test: SRB cytotoxicity assay, Sk-Hep-1; format: cell-based; settings: Homo sapiens, SK-HEP1
From the text: as §1, §2, §3, §4, §5

Huh-7 = test: SRB cytotoxicity assay, Huh-7; format: cell-based; settings: Homo sapiens
From the text: as §1, §2, §3, §4, §5

LNCap = test: SRB cytotoxicity assay, LNCap; format: cell-based; settings: Homo sapiens
From the text: as §1, §2, §3, §4, §5

myeloid CFCs = test: Bone marrow suppression evaluation, colony assay, myeloid progenitors; format: cell-based; settings: human bone marrow progenitors, methylcellulose colony assay, 14-16 days
Method: (§6) An in vitro evaluation of the effect of the pharmaceutical compositions on human bone marrow cells was performed.
(§7) Protocol: Clonogenic progenitors of the erythroid (CFU-E, BFU-E), granulocyte-monocyte (CFU-GM) and multipotential lineages (CFU-GEMM) were set up in methylcellulose-based medium (R&D Systems) containing recombinant rhSCF (50 ng/mL), rhIL-3 (10 ng/mL), rhGM-CSF (10 ng/mL),and rhEpo (3 U/mL).
(§8) TLC388 HCl and Topotecan were diluted in DMSO and Lipotecan® was diluted in sterile water to provide the appropriate working stock concentrations. These working stock solutions were subsequently added to the methylcellulose-based colony assay medium described above. The colony assay mediums were set up in triplicate at 2×10^4 cells per culture medium.
(§9) The replicate culture mediums were incubated at 37° C. in 5% CO2 for 14-16 days. After this time, the resultant colonies in the culture medium were evaluated by a senior scientist in term of size and morphology.

HCT116 = test: SRB cytotoxicity assay, HCT116 (colon cancer); format: cell-based; settings: Homo sapiens, HCT-116; HCT116, incubation 72 h
Method: as §2, §3, §4, §5

DU145 = test: SRB cytotoxicity assay, DU145; format: cell-based; settings: Homo sapiens, DU-145
From the text: as §1, §2, §3, §4, §5

Hep3B = test: SRB cytotoxicity assay, Hep3B; format: cell-based; settings: Homo sapiens
From the text: as §1, §2, §3, §4, §5

HepG2/2.2.15 = test: SRB cytotoxicity assay, HepG2/2.2.15; format: cell-based; settings: Homo sapiens
From the text: as §1, §2, §3, §4, §5

[3] = test system: erythroid Colony Forming Cells (CFCs); test: Bone marrow suppression evaluation, colony assay, erythroid progenitors; format: cell-based; settings: human bone marrow progenitors, methylcellulose colony assay, 14-16 days
Method: as §6, §7, §8, §9

HepG2 = test: SRB cytotoxicity assay, HepG2; format: cell-based; settings: Homo sapiens
From the text: as §1, §2, §3, §4, §5

HT29 = test: SRB cytotoxicity assay, HT29 (colon cancer); format: cell-based; settings: Homo sapiens, HT-29; HT29, incubation 72 h
Method: as §2, §3, §4, §5

PC-3 = test: SRB cytotoxicity assay, PC-3; format: cell-based; settings: Homo sapiens
From the text: as §1, §2, §3, §4, §5

SMILES: CC[C@@]1(OC(=O)C(C)(C)ON=C2c3cc([N+](=O)[O-])cc([N+](=O)[O-])c3-c3c2cc([N+](=O)[O-])cc3[N+](=O)[O-])C(=O)OCc2c1cc1n(c2=O)Cc2cc3c(CN(C)C)c(O)ccc3nc2-1.Cl [TLC1988 HCl, (S)-10-[(dimethylamino)methyl]-4-ethyl-9-hydroxy-4-O-[2-methyl-2-(2″,4″,5″,7″-tetranitro-9″-fluorenylideneaminooxy)propionyl]-1H-pyrano[3′,4′:6,7]indolizino[1,2-b]quinoline-3,14-(4H,12H)-dione, monohydrochloride]
solubility [1]: 10000 µg/mL
stability in an alkaline condition [2]: unstable in an alkaline condition

IC50 (myeloid CFCs): 8.7 nM
IC50 [3]: 11.8 nM
SMILES: CC[C@@]1(O)C(=O)OCc2c1cc1n(c2=O)Cc2cc3c(CN(C)C)c(O)ccc3nc2-1 [Topotecan]
IC50 (RG-2; RG-2, incubation 24 h): 7230 nM
IC50 (RG-2; RG-2, incubation 48 h): 2780 nM
IC50 (RG-2; RG-2, incubation 72 h): 3000 nM
IC50 (Sk-Hep-1; Sk-Hep-1, incubation 24 h): 74900 nM
IC50 (Sk-Hep-1; Sk-Hep-1, incubation 48 h): 12500 nM
IC50 (Sk-Hep-1; Sk-Hep-1, incubation 72 h): 2100 nM
IC50 (Huh-7; Huh-7, incubation 24 h): 65300 nM
IC50 (Huh-7; Huh-7, incubation 48 h): 5050 nM
IC50 (Huh-7; Huh-7, incubation 72 h): 2800 nM
IC50 (LNCap; incubation 24 h): 14900 nM
IC50 (LNCap; incubation 48 h): 6150 nM
IC50 (LNCap; incubation 72 h): 2590 nM
IC50 (HCT116): 8 nM
IC50 (DU145; DU145, incubation 24 h): 2250 nM
IC50 (DU145; DU145, incubation 48 h): 600 nM
IC50 (DU145; DU145, incubation 72 h): 580 nM
IC50 (Hep3B; incubation 24 h): > 50000 nM
IC50 (Hep3B; incubation 48 h): 64600 nM
IC50 (Hep3B; incubation 72 h): 200 nM
IC50 (HepG2/2.2.15; HepG2/2.2.15, incubation 24 h): > 50000 nM
IC50 (HepG2/2.2.15; HepG2/2.2.15, incubation 48 h): 63100 nM
IC50 (HepG2/2.2.15; HepG2/2.2.15, incubation 72 h): 580 nM
IC50 (HepG2; HepG2, incubation 24 h): 57400 nM
IC50 (HepG2; HepG2, incubation 48 h): 2730 nM
IC50 (HepG2; HepG2, incubation 72 h): 686 nM
IC50 (HT29): 38 nM
IC50 (PC-3; PC-3, incubation 24 h): 131000 nM
IC50 (PC-3; PC-3, incubation 48 h): 18100 nM
IC50 (PC-3; PC-3, incubation 72 h): 3580 nM
